Assay results as given in patent US6403554B2, “Polyunsaturated fatty acid derivatives and their use” (Ardenia Investments Ltd., priority 1998, dated 2002).
“Also recorded” adds a separate entry of the source.

How the values were obtained:
[1] = tested on: hemagglutinating antibodies in serum; assay: Humoral immune response: titers of hemagglutinating antibodies in serum; type: in vivo, C57B1/6 mice; conditions: serum, female mice
Protocol: (§1) 0.15 ml of compound 10 was administered intravenously to 6 mice females of CS7B1/6 line (weight 18-22 g) in doses of 45.5, 91 and 136.5 μg of compound 10 per capita for each testing group according to the dose. Simultaneously, a suspension of 5·10^7 sheep erythrocytes was injected intraperitoneally (0.2 ml per capita). Mice in the control group were injected intravenously with equal volume of saline. The effects of compound 10 on humoral immune response were analyzed both by counting the quantity of AFC in the spleen according to Cunningham (per 10^6 spleen cells and per spleen) and estimating the titers of hemagglutining antibodies in serum of the animals (Cunningham A. J., Nature, 1965, Vol.207, No 5001. P.1106-1107), while the titers of hemagglutinating antibodies were evaluated according to litterature (Evans J. et al., Cell, 1974; Vol 3., p.153-158, Feizi T., Menger E., Transfusion, 1970, Vol. 10, p.33-35,).
(§2) 0.15 ml of compound 11 was administered intravenously to 6 female mice of the C57B1/6 line (weight 18-22 g) in doses of 45.5, 91 and 136.5 μg of compound 11 per capita for each testing group according to the dose. Simultaneously, a suspension of 5·10^7 sheep erytrocytes was injected intraperitoneally (0.2 ml per capita). Mice in the control group were injected intravenously with an equal volume of saline. The effects of compound 11 on humoral immune response was analysed both by counting the quantity of AFC in the spleen according to Cunningham (per 10^6 spleen cells and per spleen) and estimating the titers of hemagglutining antibodies in serum of the animals.
as §2, with “12” for “11”, “erythrocytes” for “erytrocytes”, “analyzed” for “analysed”
as §2, with “compound 8” for “compound 11”, “sheep erythrocytes” for “sheep erytrocytes”, “Mice of” for “Mice in”, “response were analyzed” for “response was analysed”
as §2, with “compound 3” for “compound 11”, “Mice of” for “Mice in”, “with” for “with an”, “response were” for “response was”
0.15 ml of compound 4 was administered intravenously to 6 female mice of the C57B1/6 line (weight 18-22 g) in a doses of 45.5, 91 and 136.5 μg of compound 4 per capita for each testing group according to the dose. Simultaneously, a suspension of 5·10^7 sheep erythrocytes was injected intraperitoneally (0.2 ml per capita). […]

[2] = tested on: antibody-forming cells (AFC) in the spleen; assay: Influence of compound on humoral immune response to sheep erythrocytes, C57B1/6 female mice (AFC in spleen, hemagglutinins); type: in vivo; conditions: for Amount of antibody-forming cells per 10^6 spleen cells / Amount of antibody-forming cells per spleen / Effect on relative amount of AFC (per 10^6 spleen cells) / Effect on total AFC amount (per spleen) / Effect on hemagglutinin titers / Spleen index / Amount of hemagglutinins: i.v.; for Amount of antibody-forming cells per 10^6 spleen cells / Amount of antibody-forming cells per spleen / Effect on relative amount of AFC (per 10^6 spleen cells) / Effect on total AFC amount (per spleen): 5th day; for Amount of antibody-forming cells per 10^6 spleen cells / Amount of antibody-forming cells per spleen: M ± SEM; for Effect on relative amount of AFC (per 10^6 spleen cells) / Effect on total AFC amount (per spleen) / Effect on hemagglutinin titers: vs control; for Spleen index: with SRBC i.p.; for Immunogenic activity: 45.5 and 91 μg/mouse; for Amount of hemagglutinins: serum
Protocol: The increase was calculated as compared with the amount of cells in the animals immunised only with sheep erythrocytes.
as §1, §2
as §2, with “12” for “11”, “erythrocytes” for “erytrocytes”, “analyzed” for “analysed”
as §2, with “compound 8” for “compound 11”, “sheep erythrocytes” for “sheep erytrocytes”, “Mice of” for “Mice in”, “response were analyzed” for “response was analysed”
0.15 ml of compound 3 was administered intravenously to 6 female mice of the C57B1/6 line (weight 18-22 g) in doses of 45.5, 91 and 136.5 μg of compound 3 per capita for each testing group according to the dose. Simultaneously, a suspension of 5·10^7 sheep erytrocytes was injected intraperitoneally (0.2 ml per capita). Mice of the control group were injected intravenously with equal volume of saline.

Row | Compound | Amount of antibody-forming cells per 10^6 spleen cells ([2]; 45.5 μg/mouse) | Amount of antibody-forming cells per spleen ([2]; 45.5 μg/mouse) | Effect on relative amount of AFC (per 10^6 spleen cells) ([2]; 45.5 μg/mouse) | Effect on total AFC amount (per spleen) ([2]; 45.5 μg/mouse) | Effect on hemagglutinin titers ([2]; 45.5 μg/mouse) | Spleen index ([2]; 45.5 μg/mouse) | Amount of antibody-forming cells per 10^6 spleen cells ([2]; 91 μg/mouse) | Amount of antibody-forming cells per spleen ([2]; 91 μg/mouse) | Effect on relative amount of AFC (per 10^6 spleen cells) ([2]; 91 μg/mouse) | Effect on total AFC amount (per spleen) ([2]; 91 μg/mouse) | Effect on hemagglutinin titers ([2]; 91 μg/mouse) | Spleen index ([2]; 91 μg/mouse) | immunostimulating action ([2]; 136.5 μg/mouse) | Amount of antibody-forming cells per 10^6 spleen cells ([2]; 136.5 μg/mouse) | Amount of antibody-forming cells per spleen ([2]; 136.5 μg/mouse) | Effect on hemagglutinin titers ([2]; 136.5 μg/mouse) | Spleen index ([2]; 136.5 μg/mouse) | Immunogenic activity [2] | other results
1 | CC/C=C\C/C=C\C/C=C\C/C=C\C/C=C\C/C=C\CCC(=O)N[C@H](C(=O)O)[C@@H](C)OP(=O)(O)O [Compound 11, N-docosahexaenoyl-o-phospho-L-threonine] | – | – | – | – | – | – | – | – | – | – | – | – | – | – | – | – | – | – | Amount of hemagglutinins ([1]; 45.5 μg/mouse i.v.): 8.3 ± 0.3 Log2 T; Amount of hemagglutinins ([1]; 91 μg/mouse i.v.): 8.0 ± 0.5 Log2 T; Amount of hemagglutinins ([1]; 136.5 μg/mouse i.v.): 9.3 ± 0.2 Log2 T
2 | CC/C=C\C/C=C\C/C=C\C/C=C\C/C=C\C/C=C\CCC(=O)N[C@@H](Cc1ccc(OP(=O)(O)O)cc1)C(=O)O [Compound 12, N-(cis-4,7,10,13,16,19-docosahexaenoyl)-O-phospho-L-tyrosine] | 263.8±23.6 cells per 10^6 spleen cells | 31.8±2.8 × 10^3 | −9.4 p >0.05% | −9.1 p >0.05% | +2.8 p >0.05% | 6.3 ± 0.3 10^−3 | 307.8±30.9 cells per 10^6 spleen cells | 40.2±2.7 × 10^3 | +5.7 p > 0.05% | +14.9 p > 0.05% | +2.8 p > 0.05% | 5.9 ± 0.3 10^−3 | high immunostimulating action | 682.6±33.3 cells per 10^6 spleen cells | 69.6±6.0 × 10^3 | +7.7 p > 0.05% | 6.3 ± 0.4 10^−3 | no immunogenic activity | –
3 | CC/C=C\C/C=C\C/C=C\C/C=C\C/C=C\CCCC(=O)NCCOP(=O)(O)O [Compound 13, N-(cis-5,8,11,14,17-eicosapentaenoyl)-O-phospho-2-aminoethanol] | 608.2±61.3 cells per 10^6 spleen cells | 48.2±6.5 × 10^3 | −3.2 p > 0.05% | +5.0 p > 0.05% | +7,8 p > 0.05% | 5.4 ± 0.6 10^−3 | 525.0±97.2 cells per 10^6 spleen cells | 49.4±6.2 × 10^3 | −16.5 p > 0.05% | +7.6 p > 0.65% | +5,6 p > 0.05% | 5.7 ± 0.8 10^−3 | high immunostimulating action; also recorded: marked immunostimulating action | 885.9±65.8 cells per 10^6 spleen cells | 68.2±6.9 × 10^3 | +14,4 p > 0.05% | 5.3 ± 0.4 10^−3 | no immunogenic activity | –
4 | CC/C=C\C/C=C\C/C=C\C/C=C\C/C=C\CCCC(=O)NCCOP(=O)(O)O [Compound 13, N-eicosapentaenoyl-o-phospho-2-aminoethanol] | – | – | – | – | – | – | – | – | – | – | – | – | – | – | – | – | – | – | Amount of hemagglutinins ([1]; 45.5 μg/mouse i.v.): 9.7 ± 1.2 Log2 T; Amount of hemagglutinins ([1]; 91 μg/mouse i.v.): 9.5 ± 1.2 Log2 T; Amount of hemagglutinins ([1]; 136.5 μg/mouse i.v.): 10.3 ± 0.9 Log2 T
5 | CC/C=C\C/C=C\C/C=C\CCCCCCCC(=O)NCCOP(=O)(O)O [Compound 17, N-(cis-9,12,15-octadecatrienoyl)-O-phospho-2-aminoethanol] | 457.3±40.7 cells per 10^6 spleen cells | 51.1±4.4 × 10^3 | −3.0 p > 0.05% | −7.4 p > 0.05% | – | 5.8 ± 10^−3 | 523.8±45.3 cells per 10^6 spleen cells | 63.5±5.1 × 10^3 | +11.1 p > 0.05% | +15.0 p > 0.05% | +2.6 p > 0.05% | 5.7 ± 10^−3 | marked immunostimulating action | 619.6±38.9 cells per 10^6 spleen cells | 71.6±4.7 × 10^3 | +2.6 p > 0.05% | 5.9 ± 10^−3 | no immunogenic activity | Amount of hemagglutinins ([2]; 45.5 μg/mouse): 7.6 ± 0.2 Log2 T; Amount of hemagglutinins ([2]; 91 μg/mouse): 7.8 ± 0.3 Log2 T; Amount of hemagglutinins ([2]; 136.5 μg/mouse): 7.8 ± 0.4 Log2 T
6 | CC/C=C\C/C=C\C/C=C\CCCCCCCC(=O)N[C@H](C(=O)O)[C@@H](C)OP(=O)(O)O [Compound 19, N-(cis-9,12,15-octadecatrienoyl)-O-phospho-L-threonine] | 454.7±57.9 cells per 10^6 spleen cells | 48.8±6.4 × 10^3 | +4.3 p > 0.05% | +5.4 p > 0.05% | +1,3 p > 005% | 6.2 ± 10^−3 | 473.2±44.5 cells per 10^6 spleen cells | 51.2±6.1 × 10^3 | +8.6 p > 0.05% | +10.6 p > 0.05% | +3.8 p > 0.05% | 6.4 ± 10^−3 | marked immunostimulating action | 612.5±47.3 cells per 10^6 spleen cells | 64.7±4.9 × 10^3 | +6.3 p > 0.05% | 6.5 ± 10^−3 | no immunogenic activity | –
7 | CC/C=C\C/C=C\C/C=C\CCCCCCCC(=O)N[C@@H](Cc1ccc(OP(=O)(O)O)cc1)C(=O)O [Compound 20, N-(cis-9,12,15-octadecatrienoyl)-O-phospho-L-tyrosine] | 512.8±46.2 cells per 10^6 spleen cells | 46.4±4.8 × 10^3 | −9.8 p > 0.05% | −7.4 p > 0.05% | – | 6.3 ± 0.3 10^−3 | 634.5±51.7 cells per 10^6 spleen cells | 55.7±5.6 × 10^3 | +11.6 p > 0.05% | +11.2 p > 0.05% | +1.4 p > 0.05% | 6.5 ± 0.2 10^−3 | marked immunostimulating action | 845.1±43.1 cells per 10^6 spleen cells | 75.8±7.7 × 10^3 | +2.7 p > 0.05% | 6.4 ± 0.4 10^−3 | no immunogenic activity | –
